Converted amounts (≈) assume the structure as drawn.
Experiments:
[1] = system: Minimum Electroshock Threshold; assay: Minimum Electroshock Threshold (increase in net); format: in vivo; settings: Mus musculus, po; mice
Excerpt: (§1) Central depressing effects in mice (ED50 in mg/kg p.o.)
(§2) Example spontaneous Increase in net^(3)
(3) Minimum Electroshock Threshold, test arrangement according to Brown,
Schiffmann, Swinyard and Goodman; J.Pharmacol. Exptl. Ther. 107, 273

pentobarbital sleep = assay: Prolongation of pentobarbital sleep; format: in vivo; settings: Mus musculus, po, mice, p.o., read-out: ED50, increase in sleeping (prolongation of pentobarbital sleep)
Excerpt: as §1, §2
(2) Prolongation of pentobarbital sleep, R.A. Turner, Screening Methods i
Pharmacology, N.Y. 1965, p. 90.

spontaneous mobility = assay: Decrease of spontaneous mobility; format: in vivo; settings: Mus musculus, po; mice
Excerpt: as §1, §2
(1) Method described in R.A. Turner, Screening Methods in Pharmacology, […]

[2] = system: guinea pig small intestine; assay: Spasmolytic effect on guinea pig small intestine in vitro against Barium chloride; format: cell-based; settings: Cavia porcellus, Barium chloride 200 γ/ml, read-out: ED50, spasmolytic effect against Barium chloride
Excerpt: (§3) Spasmolytic effect on guinea pig small intestine (1)
(§4) (1) R. Magnus, Pflugers Arch. ges. Physiol. 102, 123 (1904)

[3] = system: guinea pig small intestine; assay: Spasmolytic effect on guinea pig small intestine in vitro against Acetylcholine; format: cell-based; settings: Cavia porcellus, Acetylcholine 0.1 γ/ml, read-out: ED50, spasmolytic effect against Acetylcholine
Excerpt: as §3, §4

[4] = system: guinea pig small intestine; assay: Spasmolytic effect on guinea pig small intestine in vitro against Histamine; format: cell-based; settings: Cavia porcellus, Histamine 0.1 γ/ml, read-out: ED50, spasmolytic effect against Histamine
Excerpt: as §3, §4

Compound CCCN(CCC)CC1=Nc2ccc(Cl)cc2S(=O)(c2ccccc2)=N1 (stereo not drawn) [Example 1, 7-Chloro-3-di-(n-propyl)aminomethyl-1-phenyl-benzo-1,2,4-thiadiazine-1 oxide] has an ED50 [1] of 38 mg/kg, an ED50 (pentobarbital sleep) of 22 mg/kg and an ED50 (spontaneous mobility) of 98 mg/kg.

In the case of CCCN(CCC)CC1=Nc2ccccc2S(=O)(c2ccc(N)cc2)=N1 (stereo not drawn) [Example 2, 3-Di-(n-propyl)-aminomethyl-1-(4'-aminophenyl)-benzo-1,2,4-thiadiazine-1-oxide], the ED50 (pentobarbital sleep) is reported as 8 mg/kg and the ED50 (spontaneous mobility) is reported as over 250 mg/kg.

O=S1(c2ccccc2)=NC(CN2CCCCC2)=Nc2ccc(Cl)cc21 (stereo not drawn) [Example 3] was tested, and the ED50 [1] was 34 mg/kg, the IC50 [2] was 1.7 µg/mL (≈ 4.55 µM) and the ED50 (pentobarbital sleep) was 34 mg/kg. For the same compound, the ED50 (spontaneous mobility) was 84 mg/kg and the IC50 [3] was 0.9 µg/mL (≈ 2.41 µM).

Work on CCN(CC)CC1=Nc2ccc(Cl)cc2S(=O)(c2ccccc2)=N1 (stereo not drawn) [Example 4] yielded an ED50 [1] of 28 mg/kg, an ED50 (pentobarbital sleep) of 46 mg/kg and an ED50 (spontaneous mobility) of 78 mg/kg.

For O=S1(c2ccccc2)=NC(CN2CCOCC2)=Nc2ccc(Cl)cc21 (stereo not drawn) [Example 5], the ED50 [1] was 92 mg/kg, the ED50 (pentobarbital sleep) was 46 mg/kg and the ED50 (spontaneous mobility) was over 250 mg/kg.

With O=S1(c2ccccc2)=NC(CN2CCCC2)=Nc2ccc(Cl)cc21 (stereo not drawn) [Example 6] the ED50 [1] was 68 mg/kg, the ED50 (pentobarbital sleep) was 38 mg/kg and the ED50 (spontaneous mobility) was 70 mg/kg.

O=S1(c2ccccc2)=NC(CNCCO)=Nc2ccc(Cl)cc21 (stereo not drawn) [Example 7] showed an ED50 [1] of 126 mg/kg, an ED50 (pentobarbital sleep) of 15 mg/kg and an ED50 (spontaneous mobility) of 23 mg/kg.

CN(C)CC1=Nc2ccc(Cl)cc2S(=O)(c2ccccc2)=N1 (stereo not drawn) [Example 8] showed an ED50 [1] of 46 mg/kg, an ED50 (pentobarbital sleep) of 16 mg/kg and an ED50 (spontaneous mobility) of 96 mg/kg.

For COCCNCC1=Nc2ccc(Cl)cc2S(=O)(c2ccccc2)=N1 (stereo not drawn) [Example 9], the ED50 [1] was 32 mg/kg, the ED50 (pentobarbital sleep) was 58 mg/kg and the ED50 (spontaneous mobility) was over 250 mg/kg.

Compound CCNCC1=Nc2ccc(Cl)cc2S(=O)(c2ccccc2)=N1 (stereo not drawn) [Example 13] has an ED50 [1] of 42 mg/kg, an ED50 (pentobarbital sleep) of 25 mg/kg and an ED50 (spontaneous mobility) of 240 mg/kg.

COCCN(C)CC1=Nc2ccc(Cl)cc2S(=O)(c2ccccc2)=N1 (stereo not drawn) [Example 14] showed an ED50 [1] of 46 mg/kg, an ED50 (pentobarbital sleep) of 28 mg/kg and an ED50 (spontaneous mobility) of over 250 mg/kg.

CCCN(CCC)CC1=Nc2cc(C)ccc2S(=O)(c2ccccc2)=N1 (stereo not drawn) [Example 15] gave an ED50 [1] of over 500 mg/kg, an IC50 [2] of 2.2 µg/mL (≈ 5.95 µM) and an ED50 (pentobarbital sleep) of 8.5 mg/kg. For the same compound, the IC50 [4] was 0.96 µg/mL (≈ 2.6 µM), the ED50 (spontaneous mobility) was 76 mg/kg and the IC50 [3] was 2.7 µg/mL (≈ 7.31 µM).

Work on CCCN(CCC)CC1=Nc2ccccc2S(=O)(c2ccccc2)=N1 (stereo not drawn) [Example 18] yielded an ED50 [1] of 134 mg/kg, an IC50 [2] of 1.2 µg/mL (≈ 3.38 µM) and an ED50 (pentobarbital sleep) of 3.1 mg/kg. The ED50 (spontaneous mobility) was 186 mg/kg and the IC50 [3] was 4 µg/mL (≈ 11.3 µM).

Compound O=S1(c2ccccc2)=NC(CNCCO)=Nc2ccccc21 (stereo not drawn) [Example 19] has an ED50 [1] of over 500 mg/kg, an ED50 (pentobarbital sleep) of 2 mg/kg and an ED50 (spontaneous mobility) of over 250 mg/kg.

Compound CCCN(CCC)CC1=Nc2ccccc2S(=O)(c2ccc(Cl)cc2)=N1 (stereo not drawn) [Example 20] has an ED50 [1] of over 250 mg/kg, an ED50 (pentobarbital sleep) of 2 mg/kg and an ED50 (spontaneous mobility) of 31 mg/kg. For the same compound, the IC50 [3] was 2.6 µg/mL (≈ 6.67 µM).

Work on O=S1(c2ccc(Cl)cc2)=NC(CNCCO)=Nc2ccccc21 (stereo not drawn) [Example 21] yielded an ED50 (pentobarbital sleep) of 9 mg/kg and an ED50 (spontaneous mobility) of 46 mg/kg.

CCCN(CCC)CC1=Nc2ccc(Cl)cc2S(=O)(c2ccc(Cl)cc2)=N1 (stereo not drawn) [Example 22] was tested, and the IC50 [2] was 0.72 µg/mL (≈ 1.7 µM), the ED50 (pentobarbital sleep) was 16 mg/kg and the ED50 (spontaneous mobility) was 28 mg/kg. For the same compound, the IC50 [3] was 2.2 µg/mL (≈ 5.18 µM).

Compound CCCN(CCC)CC1=Nc2ccc(Cl)cc2S(=O)(c2cccc(C)c2)=N1 (stereo not drawn) [Example 23] has an IC50 [2] of 0.9 µg/mL (≈ 2.23 µM), an IC50 [4] of 0.08 µg/mL (≈ 0.198 µM) and an IC50 [3] of 1.1 µg/mL (≈ 2.72 µM).

Work on CCCN(CCC)CC1=Nc2cccc(Cl)c2S(=O)(c2ccc(Cl)cc2)=N1 (stereo not drawn) [Example 24] yielded an ED50 [1] of 115 mg/kg, an IC50 [2] of 0.72 µg/mL (≈ 1.7 µM) and an ED50 (pentobarbital sleep) of 20 mg/kg. For the same compound, the IC50 [4] was 0.04 µg/mL (≈ 0.0943 µM), the ED50 (spontaneous mobility) was 16 mg/kg and the IC50 [3] was 2.2 µg/mL (≈ 5.18 µM).

CCCN(CCC)CC1=Nc2ccc(C)cc2S(=O)(c2ccc(Cl)cc2)=N1 (stereo not drawn) [Example 25] gave an ED50 [1] of 21 mg/kg, an IC50 [2] of 0.69 µg/mL (≈ 1.71 µM) and an ED50 (pentobarbital sleep) of over 250 mg/kg. It also gave an ED50 (spontaneous mobility) of 31 mg/kg and an IC50 [3] of 0.69 µg/mL (≈ 1.71 µM).
